US5693805A, “Process to derivatives of piperizinylcamphorsulfonyl oxytocin antagonists” (Merck & Co., Inc., priority 1995, dated 1997)

Target: T1, uterine OT receptors (Rattus norvegicus, UniProt P70536)
T1 construct: from tissue; host or cells: uterus of DES-treated rats, crude membrane preparation
T1 sequence (P70536 1-388): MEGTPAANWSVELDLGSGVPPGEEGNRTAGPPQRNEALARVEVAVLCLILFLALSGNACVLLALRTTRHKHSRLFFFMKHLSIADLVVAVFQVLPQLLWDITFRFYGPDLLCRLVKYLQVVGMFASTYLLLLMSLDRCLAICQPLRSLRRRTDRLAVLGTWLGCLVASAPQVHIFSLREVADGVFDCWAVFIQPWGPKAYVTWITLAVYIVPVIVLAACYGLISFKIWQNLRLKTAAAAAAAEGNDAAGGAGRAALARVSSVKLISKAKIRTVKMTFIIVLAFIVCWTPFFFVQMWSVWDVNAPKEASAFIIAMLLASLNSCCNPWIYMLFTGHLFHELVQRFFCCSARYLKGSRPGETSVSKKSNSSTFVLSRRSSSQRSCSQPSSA
Assay: [3H]Oxytocin radioligand binding assay to uterine OT receptors (crude membrane preparation of uteri from DES-treated rats)
Conditions: competition at equilibrium, 60 min, 22° C., 1 nM [3H]OT, pH 7.4; Ki = IC50/1+c/Kd, Kd [3H]OT (uterus) 0.7 nM; three to six separate determinations
Method: The high affinity binding of [^3 H] […] Competition studies were conducted at equilibrium (60 minutes; 22° C.) using 1 nM[^3 H]OT in the following assay buffer: 50 mM Tris-HCl, 5 mM MgCl2, and 0.1% BSA, pH 7.4.

Ki: 7.7 nM
Structure (SMILES): Cc1ccccc1N1CCN(S(=O)(=O)C[C@]23CC[C@H](C[C@@H]2NC(=O)[C@@H](N)CCS(C)(=O)=O)C3(C)C)CC1 [Compound I]
